Here are results for four molecules from patent publication US12076329B2, “Compositions and methods for enhancing visual function” (The Regents of the University of California, priority 2020, dated 2024).

One test has as its target T1, Halo-mGluR2 (Rattus norvegicus, UniProt P31421).
T1 construct: expressed in transfected cells; host or cells: HEK 293T
Kind of test: Photoactivation and labeling of Halo-mGluR2, whole cell patch clamp in HEK 293T cells. The test is classed as cell-based. How it is done: (§1) Whole cell patch clamp recordings from HEK 293T cells were performed 24-48 hours after transfection as previously described (Farrants et al., 2018). Briefly, voltage clamp recordings at −60 mV were performed in a high potassium (120 mM) solution to enable large inward currents upon receptor activation.
(§2) Unless otherwise noted, cells were incubated with 1-10 μM of PORTL for 45-60 min at 37° C. in the appropriate extracellular recording solution. Labeling efficiency was determined as previously described (Levitz et al., 2017). Illumination was applied to the entire field of view using a CoolLED pE-4000 through a 40× objective. Light intensity in the sample plane was 1-2 mW/mm^2. pClamp software was used for both data acquisition and control of illumination. All drugs were purchased from Tocris and applied using a gravity-driven perfusion system.
With the goal of further expanding the repertoire of PORTLs to a third self-labelling, orthogonal suicide enzyme, the Halo-tag, which reacts specifically with alkyl chlorides (Los et al., 2008), was used. […] Based on the hypothesis that branching Halo-targeting PORTLs would enhance photoswitching, “doubleClAG12” (^2×ClAG12) (Scheme S8 (FIG. 1H); FIG. 2E) was synthesized. […]
For orientation: In patch-clamp work, channel activity is measured electrically.

The target of the next test is T2, CLIP-mGluR2 (Rattus norvegicus, UniProt P31421).
T2 construct: expressed in transfected cells; host or cells: HEK 293T
T2 sequence (P31421 with tags, fused parts or gaps): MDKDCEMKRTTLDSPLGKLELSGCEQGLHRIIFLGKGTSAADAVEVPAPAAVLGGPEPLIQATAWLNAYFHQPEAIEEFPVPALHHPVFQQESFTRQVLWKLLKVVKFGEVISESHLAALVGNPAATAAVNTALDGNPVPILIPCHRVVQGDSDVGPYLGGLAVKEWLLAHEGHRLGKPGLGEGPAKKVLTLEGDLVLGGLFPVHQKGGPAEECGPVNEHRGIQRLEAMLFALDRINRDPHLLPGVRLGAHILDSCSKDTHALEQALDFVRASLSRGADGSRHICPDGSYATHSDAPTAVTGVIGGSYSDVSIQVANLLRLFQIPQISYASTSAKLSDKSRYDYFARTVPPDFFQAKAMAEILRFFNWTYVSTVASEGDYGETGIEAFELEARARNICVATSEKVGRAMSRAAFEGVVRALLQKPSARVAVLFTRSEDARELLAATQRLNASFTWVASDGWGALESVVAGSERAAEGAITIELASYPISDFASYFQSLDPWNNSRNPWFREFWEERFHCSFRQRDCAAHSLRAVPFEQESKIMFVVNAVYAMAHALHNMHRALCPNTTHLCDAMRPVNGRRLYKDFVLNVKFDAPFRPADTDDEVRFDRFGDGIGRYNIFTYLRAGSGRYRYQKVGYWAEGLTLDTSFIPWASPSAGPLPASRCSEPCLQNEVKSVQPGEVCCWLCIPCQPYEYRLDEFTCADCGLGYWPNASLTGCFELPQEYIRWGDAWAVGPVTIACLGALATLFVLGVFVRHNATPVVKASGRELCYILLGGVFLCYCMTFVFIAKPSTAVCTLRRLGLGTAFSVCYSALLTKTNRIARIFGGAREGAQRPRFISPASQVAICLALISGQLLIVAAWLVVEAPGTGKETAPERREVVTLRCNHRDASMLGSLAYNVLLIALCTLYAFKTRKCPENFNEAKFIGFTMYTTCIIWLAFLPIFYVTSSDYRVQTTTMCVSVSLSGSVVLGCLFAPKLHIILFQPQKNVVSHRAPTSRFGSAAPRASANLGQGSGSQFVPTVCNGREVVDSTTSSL
Kind of test: Photoactivation of CLIP-mGluR2, whole cell patch clamp in HEK 293T cells. The test is classed as cell-based. As to the method:
as §1, §2

Another test concerns the target T3, SNAP-mGluR2 (Rattus norvegicus, UniProt P31421).
T3 construct: expressed in transfected cells; host or cells: HEK293 / HEK 293T, with co-expressed GIRK channel
Kind of test: Photoactivation of SNAP-mGluR2 read out as GIRK current, whole cell patch clamp in HEK293 cells. The test is classed as cell-based. The following applies: specificity: applied to cells expressing SNAP-mGluR2, n=3 cells. As to the method: as §1, §2
FIG. 3A-3C. Monovalent BGAG12,460 elicits rat SNAP-mGluR2 and human SNAP-mGluR6 GIRK photo-current in HEK293 cells. FIG. 3A. Group II and III mGluRs, like mGluR2 and 6, respectively, couple to GIRK channels in neurons and this system reconstitutes in non-neuronal cell lines, so that SNAP-mGluR2 or 6 coupled to a BGAG photoswitch will be activated by light and induce hyperpolarizing GIRK current. FIG. 3B. Blue (460 nm) light photo-activates BGAG12,460:SNAP-mGluR2 and elicits an inward K+ current from co-expressed GIRK channel in a HEK293 cell voltage clamped at −60 mV with [K+]in=[K+]out=150 mM. FIG. 3C.
FIG. 4A-4D. Multibranched BGAG12,460 increases potency and sensitivity of SNAP-mGluR2 activation of GIRK channels in HEK293 cells. FIG. 4A. ^4×BGAG12,460 consists of a single BG end for 1:1 attachment to SNAP on each subunit of the mGluR and 4 branches of a 12-PEG linker, with each branch bearing a photoswitchable azobenzene-glutamate (AG). FIG. 4B. […] Dependence of SNAP-mGluR2 photo-activation efficiency, read out as GIRK current, with single, 2-branch and 4-branch BGAG12,460. […]

The test system of another test is GFP-tagged mGluR2. Nature of the test: Nanobody-photoswitch conjugate (NPC)-mediated photoswitching of GFP-tagged mGluR2. The following applies: SNAP-tagged anti-GFP nanobody labeled with PORTL. The test is classed as cell-based. The text has this:
Finally, a long-term goal of tethered photopharmacology is to incorporate the optical control afforded by such compounds into antibody-mediated targeting of proteins. “Nanobody-photoswitch conjugates” (NPCs) consisting of a SNAP-tagged nanobody labeled with a PORTL have been reported. NPCs containing an anti-GFP nanobody are able to photoactivate GFP-tagged mGluR2, but with limited efficiency (Farrants et al., 2018).

The subject of test [1] is RGCs from isolated rd1 retina. Nature of the test: MEA recordings of RGCs from isolated rd1 retina. The test is classed as cell-based, mouse. The following applies: 1 s light flashes. The source says:
FIG. 10A-10C. MEA recordings of RGCs from isolated rd1 retina with either BGAG12,460:SNAP-mGluR2 or medium wave cone opsin in RGCs. A) Superimposed average responses to 1 s light flashes in dozens of RGCs in 3 representative retinas isolated from: wildtype mice (Wt; red), rd1 mice expressing medium wave (MW) cone opsin in RGCs (black), and rd1 mice expressing SNAP-mGluR2 in RGCs (blue) following intravitreal injection of BGAG12,460. […] B) Blue light activation of BGAG12,460:SNAP-mGluR2 evokes an immediate inhibition with a sustained amplitude during illumination, followed by a transient excitatory rebound after termination of illumination. […] As light pulses are shortened, the delay to peak response increases and deactivation slows, (from (Berry et al. (2019) supra).

Test [2] deals with rd1 animals expressing medium wave cone opsin in RGCs. Kind of test: Line pattern recognition in moving displays, medium wave cone opsin in RGCs. The test is classed as in vivo, mouse. The following applies: expressed in RGCs of rd1 animals. The text has this:
The kinetics of onset, decay and recovery of the restored light response are expected to affect the ability to recognize a visual pattern. […] Thus, the speed limit of ^4×BGAG12,460:SNAP-mGluR2 in RGCs is ≥8 cm/s, whereas that of medium wave cone opsin in RGCs is ≤4 cm/s.

For test [3] the test system is unchanged. The following applies: Berry et al. (2019); cited from earlier work.

Entries after “also recorded” stand apart in the source; their conditions may differ. Some results are limits rather than exact numbers.

T3 sequence (P31421 with tags, fused parts or gaps): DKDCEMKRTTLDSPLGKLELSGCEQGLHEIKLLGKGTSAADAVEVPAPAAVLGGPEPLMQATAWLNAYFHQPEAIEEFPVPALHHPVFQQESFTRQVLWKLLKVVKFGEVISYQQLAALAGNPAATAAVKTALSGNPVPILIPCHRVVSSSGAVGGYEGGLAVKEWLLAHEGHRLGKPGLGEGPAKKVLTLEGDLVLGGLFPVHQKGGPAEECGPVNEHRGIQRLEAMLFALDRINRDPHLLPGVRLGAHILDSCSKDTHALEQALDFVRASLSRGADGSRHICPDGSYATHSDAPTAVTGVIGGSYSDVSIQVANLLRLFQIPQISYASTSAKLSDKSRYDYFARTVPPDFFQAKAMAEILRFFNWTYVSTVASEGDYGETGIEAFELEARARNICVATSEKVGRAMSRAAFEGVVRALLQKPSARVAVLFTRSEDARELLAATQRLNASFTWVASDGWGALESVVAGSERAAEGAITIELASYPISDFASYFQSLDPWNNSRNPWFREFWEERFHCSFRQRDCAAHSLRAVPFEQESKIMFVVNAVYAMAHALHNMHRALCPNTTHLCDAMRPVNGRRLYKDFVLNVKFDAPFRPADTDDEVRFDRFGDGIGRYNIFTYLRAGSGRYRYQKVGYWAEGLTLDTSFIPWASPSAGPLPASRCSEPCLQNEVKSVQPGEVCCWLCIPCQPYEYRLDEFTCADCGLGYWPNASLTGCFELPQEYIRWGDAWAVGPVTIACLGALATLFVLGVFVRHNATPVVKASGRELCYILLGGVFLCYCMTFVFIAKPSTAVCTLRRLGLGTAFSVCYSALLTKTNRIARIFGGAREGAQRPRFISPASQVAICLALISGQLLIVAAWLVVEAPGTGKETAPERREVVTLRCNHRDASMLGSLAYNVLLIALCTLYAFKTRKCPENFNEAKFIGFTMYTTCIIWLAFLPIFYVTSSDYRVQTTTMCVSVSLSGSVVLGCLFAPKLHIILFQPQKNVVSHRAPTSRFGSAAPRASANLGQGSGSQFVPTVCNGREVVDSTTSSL
T1 sequence (P31421 with tags, fused parts or gaps): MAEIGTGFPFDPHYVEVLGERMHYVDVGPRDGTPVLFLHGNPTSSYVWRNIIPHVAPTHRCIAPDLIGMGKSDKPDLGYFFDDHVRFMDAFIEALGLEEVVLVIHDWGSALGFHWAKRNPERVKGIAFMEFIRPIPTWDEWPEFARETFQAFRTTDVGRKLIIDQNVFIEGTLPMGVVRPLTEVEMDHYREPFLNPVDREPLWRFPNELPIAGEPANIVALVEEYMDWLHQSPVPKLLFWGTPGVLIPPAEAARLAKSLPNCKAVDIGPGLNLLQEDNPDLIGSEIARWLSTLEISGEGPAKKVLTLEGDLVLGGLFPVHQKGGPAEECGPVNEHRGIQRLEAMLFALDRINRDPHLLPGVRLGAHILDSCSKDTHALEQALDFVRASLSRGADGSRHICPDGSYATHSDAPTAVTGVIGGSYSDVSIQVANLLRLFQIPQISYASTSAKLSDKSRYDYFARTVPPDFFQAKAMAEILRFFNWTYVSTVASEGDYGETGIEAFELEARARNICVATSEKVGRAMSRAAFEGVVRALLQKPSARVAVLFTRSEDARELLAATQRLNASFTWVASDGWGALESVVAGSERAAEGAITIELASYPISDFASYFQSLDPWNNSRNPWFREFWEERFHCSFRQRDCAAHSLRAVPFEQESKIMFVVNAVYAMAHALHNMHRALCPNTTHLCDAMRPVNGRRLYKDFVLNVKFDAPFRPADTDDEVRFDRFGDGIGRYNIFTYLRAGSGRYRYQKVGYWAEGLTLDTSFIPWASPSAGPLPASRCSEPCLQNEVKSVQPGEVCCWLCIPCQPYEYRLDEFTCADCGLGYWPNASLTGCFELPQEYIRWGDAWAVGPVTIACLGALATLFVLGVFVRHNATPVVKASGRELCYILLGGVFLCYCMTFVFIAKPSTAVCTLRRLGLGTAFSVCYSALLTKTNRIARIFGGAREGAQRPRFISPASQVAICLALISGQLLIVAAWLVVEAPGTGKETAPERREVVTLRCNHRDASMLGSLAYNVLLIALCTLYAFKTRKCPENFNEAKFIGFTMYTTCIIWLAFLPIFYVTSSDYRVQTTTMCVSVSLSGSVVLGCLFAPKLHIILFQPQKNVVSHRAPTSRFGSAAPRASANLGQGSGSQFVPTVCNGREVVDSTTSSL

Take `N[C@@H](C[C@H](CCCC(=O)Nc1ccc(/N=N/c2ccc(NC(=O)CNC(=O)CCOCCOCCOCCOCCOCCOCCOCCOCCOCCOCCOCCOCCNC(=O)CCCC(=O)NCCOCCOCCCCCCCl)cc2)cc1)C(=O)O)C(=O)O` [ClAG12, (2S,4S)-2-Amino-4-(4-((4-((E)-(4-(61-chloro-4,44,48-trioxo-7,10,13,16,19,22,25,28,31,34,37,40,52,55-tetradecaoxa-3,43,49-triazahenhexacontanamido)phenyl)diazenyl)phenyl)amino)-4-oxobutyl)pentanedioic acid]: the “photoactivation of Halo-mGluR2” value at Halo-mGluR2 is given as “showed photoactivation of mGluR2”.
Regarding `Nc1ccnc(OCc2ccc(CNC(=O)CCC(=O)N3Cc4ccccc4-c4nnn(CCOCCOCCOCCOCCOCCOCCOCCOCCOCCOCCOCCOCCC(=O)N[C@H](CCC(=O)NCC(=O)Nc5ccc(/N=N/c6ccc(NC(=O)CCC[C@@H](C[C@H](N)C(=O)O)C(=O)O)cc6)cc5)C(=O)NCC(=O)Nc5ccc(/N=N/c6ccc(NC(=O)CCC[C@@H](C[C@H](N)C(=O)O)C(=O)O)cc6)cc5)c4-c4ccccc43)cc2)n1` [^2×BCAG12], the “optical control / efficiency of photoactivation of CLIP-mGluR2” value on CLIP-mGluR2 is “near-complete optical control; also recorded: enhances efficiency of CLIP-mGluR2 photoactivation compared to BCAG12”. For the same molecule, the “photocurrent relative to 1 mM glutamate” value at SNAP-mGluR2 worked out at 2.8±0.3%.
With `Nc1nc(OCc2ccc(CNC(=O)CCCC(=O)NCCOCCOCCOCCOCCOCCOCCOCCOCCOCCOCCOCCOCCC(=O)N[C@H](CCC(=O)NCC(=O)Nc3ccc(/N=N/c4ccc(NC(=O)CCC[C@@H](C[C@H](N)C(=O)O)C(=O)O)cc4)cc3)C(=O)NCC(=O)Nc3ccc(/N=N/c4ccc(NC(=O)CCC[C@@H](C[C@H](N)C(=O)O)C(=O)O)cc4)cc3)cc2)c2nc[nH]c2n1` [^2×BGAG12], the “photoswitch efficiency of NPC-mediated photoswitching of mGluR2” value in the test with GFP-tagged mGluR2 is reported as “doubled the photoswitch efficiency”.

B1: medium wave cone opsin: medium wave (MW) cone opsin expressed in RGCs of rd1 mice, comparator light-activated GPCR (protein, UniProt O35599 1-359, looked up)
Medium-wave-sensitive opsin 1: MAQRLTGEQTLDHYEDSTHASIFTYTNSNSTKGPFEGPNYHIAPRWVYHLTSTWMILVVVASVFTNGLVLAATMRFKKLRHPLNWILVNLAVADLAETIIASTISVVNQIYGYFVLGHPLCVIEGYIVSLCGITGLWSLAIISWERWLVVCKPFGNVRFDAKLATVGIVFSWVWAAIWTAPPIFGWSRYWPYGLKTSCGPDVFSGTSYPGVQSYMMVLMVTCCIFPLSIIVLCYLQVWLAIRAVAKQQKESESTQKAEKEVTRMVVVMVFAYCLCWGPYTFFACFATAHPGYAFHPLVASLPSYFAKSATIYNPIIYVFMNRQFRNCILHLFGKKVDDSSELSSTSKTEVSSVSSVSPA
On to B1, for which the “latency of RGC response to light onset” value in test [1] is “delayed response”. In test [2], the “line pattern recognition when the display moved at 4 cm/s” value is recorded as “performed at the level of the untreated rd1 animals” and the “speed limit of line pattern recognition in moving displays” value is no more than 4 cm/s. Besides, the “line pattern recognition when the displays move at 1 cm/s” value in test [3] is “perform well”.
